Reference: the supplement of paper PMC10307832

Assays:
Experiment in all cases: relative viability (nuclei count vs DMSO), 5 days (fraction); higher = more cells survive
[1] = compound: C1CC2=C(C1)C=C(C=C2)OC3=NC(=C4C(=N3)N(C=N4)CC5=CC=C(C=C5)C6=CC=CC=C6)N[C@@H](CC7=CC=CC=C7)CO [QS11] + CCNC(=O)c1noc(-c2cc(C(C)C)c(O)cc2O)c1-c1ccc(CN2CCOCC2)cc1 [Luminespib] (partner 0.01 µM)
Procedure, shortened: (§1)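 Lung cancer cell lines, seeded in 1536-well plates, were treated the following day by pin tool with a single drug or with five library-drug doses (not always all listed) in √10 steps on top of a fixed anchor-drug dose. Cells were fixed and nuclei stained in one step after 5 days, and nuclei were counted. Relative viability is the nuclei count for treated wells divided by that for vehicle wells, reported as medians of duplicate plates.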

[2] = compound: CC1=C(C=C(C=C1)NC(=O)C2=CC(=CC=C2)C(C)(C)C#N)NC3=CC4=C(C=C3)N=CN(C4=O)C [AZ628] + Nc1ncn([C@H]2C[C@H](O)[C@@H](CO)O2)c(=O)n1 [Decitabine] (partner 2 µM)
Procedure, shortened: as §1

[3] = compound: CC1=C(C=C(C=C1)NC(=O)C2=CC(=CC=C2)C(C)(C)C#N)NC3=CC4=C(C=C3)N=CN(C4=O)C [AZ628] + O=C(CCCCCCC(=O)Nc1ccccc1)NO [Vorinostat] (partner 1 µM)
Procedure, shortened: as §1

[4] = compound: C[As](C)SC[C@H](NC(=O)CC[C@H](N)C(=O)O)C(=O)NCC(=O)O [Darinaparsin] + CC(C)C[C@H](NC(=O)[C@H](Cc1ccccc1)NC(=O)c1cnccn1)B(O)O [Bortezomib] (partner 0.002 µM)
Procedure, shortened: as §1

Cell Line | relative viability ([1]; first compound 0.08 µM) | relative viability ([1]; first compound 0.253 µM) | relative viability ([1]; first compound 0.8 µM) | relative viability ([1]; first compound 2.53 µM) | relative viability ([1]; first compound 8 µM) | relative viability ([2]; first compound 0.08 µM) | relative viability ([2]; first compound 0.253 µM) | relative viability ([2]; first compound 0.8 µM) | relative viability ([2]; first compound 2.53 µM) | relative viability ([2]; first compound 8 µM) | relative viability ([3]; first compound 0.08 µM) | relative viability ([3]; first compound 0.253 µM) | relative viability ([3]; first compound 0.8 µM) | relative viability ([3]; first compound 2.53 µM) | relative viability ([3]; first compound 8 µM) | relative viability ([4]; first compound 0.08 µM) | relative viability ([4]; first compound 0.8 µM) | relative viability ([4]; first compound 2.53 µM) | relative viability ([4]; first compound 8 µM)
EMC-BAC-2 | 1.28 | 1.27 | 0.817 | 0.953 | 0.961 | 0.944 | 0.84 | 0.874 | 0.749 | 0.465 | 0.878 | 0.57 | 0.642 | 0.562 | 0.449 | 1.2 | 0.973 | 0.997 | 1.2
NCI-H2405 | 0.516 | 0.756 | 0.646 | 0.835 | 0.89 | 0.552 | 0.53 | 0.488 | 0.495 | 0.408 | 0.884 | 0.8 | 0.69 | 0.707 | 0.586 | 1.08 | 0.936 | 0.899 | 1.09
HOP-62 | 0.816 | 1.03 | 0.828 | 0.942 | 0.934 | 0.235 | 0.265 | 0.236 | 0.249 | 0.214 | 0.641 | 0.701 | 0.641 | 0.432 | 0.289 | 1.31 | 0.784 | 1.12 | 0.671
NCI-H1651 | 1.05 | 0.923 | 0.75 | 0.714 | 0.752 | 0.67 | 0.571 | 0.653 | 0.683 | 0.593 | 0.584 | 0.491 | 0.573 | 0.559 | 0.561 | 1.05 | 1.05 | 0.917 | 1.12
NCI-H2085 | 0.376 | 0.474 | 0.286 | 0.403 | 0.546 | 0.534 | 0.563 | 0.569 | 0.575 | 0.609 | 0.845 | 0.788 | 0.891 | 0.826 | 0.736 | 0.987 | 0.996 | 1.07 | 1.16
NCI-H2023 | 0.789 | 0.916 | 0.554 | 0.624 | 0.814 | 0.292 | 0.229 | 0.24 | 0.228 | 0.252 | 0.825 | 0.61 | 0.542 | 0.636 | 0.405 | 1.36 | 0.956 | 0.892 | 1.06
UMC-11 | 1.01 | 1.13 | 0.995 | 1.27 | 1.12 | 0.704 | 0.65 | 0.551 | 0.556 | 0.758 | 0.442 | 0.336 | 0.361 | 0.328 | 0.36 | 0.81 | 0.728 | 0.442 | 0.739
NCI-H23 | 0.212 | 0.237 | 0.208 | 0.227 | 0.182 | 0.298 | 0.315 | 0.232 | 0.291 | 0.269 | 0.709 | 0.555 | 0.524 | 0.404 | 0.333 | 1.17 | 1.19 | 0.795 | 1.14
NCI-H1355 | 0.743 | 0.696 | 0.602 | 0.727 | 0.703 | 0.414 | 0.322 | 0.381 | 0.344 | 0.265 | 0.69 | 0.623 | 0.581 | 0.598 | 0.418 | 1.38 | 1.13 | 1.19 | 1.36
NCI-H1734 | 0.2 | 0.199 | 0.186 | 0.179 | 0.168 | 0.515 | 0.549 | 0.5 | 0.457 | 0.344 | 0.923 | 0.773 | 0.761 | 0.772 | 0.463 | 1.37 | 0.937 | 0.854 | 0.986
EPLC-272H | – | 0.269 | 0.311 | 0.385 | 0.284 | 0.297 | 0.328 | 0.371 | 0.319 | 0.225 | 0.557 | 0.518 | 0.4 | 0.332 | 0.274 | 1.07 | 0.969 | 0.74 | 0.9
LXF-289 | 0.544 | 0.739 | 0.544 | 0.519 | 0.551 | 0.403 | 0.378 | 0.394 | 0.371 | 0.372 | 0.817 | 0.755 | 0.701 | 0.71 | 0.473 | 1.09 | 1.03 | 0.81 | 1.19
NCI-H520 | 0.25 | 0.369 | 0.228 | 0.231 | 0.209 | 0.563 | 0.488 | 0.547 | 0.472 | 0.382 | 0.684 | 0.628 | 0.702 | 0.81 | 0.716 | 0.765 | 0.491 | 0.531 | 0.474
H3255 | 0.818 | 1.06 | – | 0.966 | 0.961 | 0.723 | 0.504 | 0.567 | 0.51 | 0.379 | 0.838 | 0.781 | 0.846 | 0.87 | 0.824 | 0.794 | 0.835 | 0.79 | 0.945
NCI-H460 | 0.0331 | 0.0356 | 0.0316 | 0.0243 | 0.0438 | 0.512 | 0.456 | 0.38 | 0.532 | 0.165 | 0.728 | 0.715 | 0.644 | 0.641 | 0.24 | – | 1.11 | 0.703 | 1.84
PC-14 | – | 0.14 | 0.183 | 0.135 | 0.148 | 0.255 | 0.228 | 0.168 | 0.19 | 0.166 | 0.762 | 0.745 | 0.632 | 0.677 | 0.232 | 0.925 | 0.77 | 0.753 | 1.11
HCC-15 | 0.334 | 0.311 | 0.332 | 0.341 | 0.389 | 0.633 | 0.521 | 0.426 | 0.481 | 0.29 | 0.867 | 0.728 | 0.693 | 0.61 | 0.348 | 1.25 | 1.06 | 0.863 | 1.28
